Our source for the IC50 values is patent US20240360151A1 (SANOFI, priority 2023, published 2024).

As usually defined, the IC50 is the point on the concentration scale where inhibition reaches its midpoint.

The target of the assay is T1, NLRP3 inflammasome (Homo sapiens, UniProt Q96P20).
T1 construct: endogenous in cells; host or cells: THP-1 monocytic cells
T1 sequence (Q96P20 whole entry): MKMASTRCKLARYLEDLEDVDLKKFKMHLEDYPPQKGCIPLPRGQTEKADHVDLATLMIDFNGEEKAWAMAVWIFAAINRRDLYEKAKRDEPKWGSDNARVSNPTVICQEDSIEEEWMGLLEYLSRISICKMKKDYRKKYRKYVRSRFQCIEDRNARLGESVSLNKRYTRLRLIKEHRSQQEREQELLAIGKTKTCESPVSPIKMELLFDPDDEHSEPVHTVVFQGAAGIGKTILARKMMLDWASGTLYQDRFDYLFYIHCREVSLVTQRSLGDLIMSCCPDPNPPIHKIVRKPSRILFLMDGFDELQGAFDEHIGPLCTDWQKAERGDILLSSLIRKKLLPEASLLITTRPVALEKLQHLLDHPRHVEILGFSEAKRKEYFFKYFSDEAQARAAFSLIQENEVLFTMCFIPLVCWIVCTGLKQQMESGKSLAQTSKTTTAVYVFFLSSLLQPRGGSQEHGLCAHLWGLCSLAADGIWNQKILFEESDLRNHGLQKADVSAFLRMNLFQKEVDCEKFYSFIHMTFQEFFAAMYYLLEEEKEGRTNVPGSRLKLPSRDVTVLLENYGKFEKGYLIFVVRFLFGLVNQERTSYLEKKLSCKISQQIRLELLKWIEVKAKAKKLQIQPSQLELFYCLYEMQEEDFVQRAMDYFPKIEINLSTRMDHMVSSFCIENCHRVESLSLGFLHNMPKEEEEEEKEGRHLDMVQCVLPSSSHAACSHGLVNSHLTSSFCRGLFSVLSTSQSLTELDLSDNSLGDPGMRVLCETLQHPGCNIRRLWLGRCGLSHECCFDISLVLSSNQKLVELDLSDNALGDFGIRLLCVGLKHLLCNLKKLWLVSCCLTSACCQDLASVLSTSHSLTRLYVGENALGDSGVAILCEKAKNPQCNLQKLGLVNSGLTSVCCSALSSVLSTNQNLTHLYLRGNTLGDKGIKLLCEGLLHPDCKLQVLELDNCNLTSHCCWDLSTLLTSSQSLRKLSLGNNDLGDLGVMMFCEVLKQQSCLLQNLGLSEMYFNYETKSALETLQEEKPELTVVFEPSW
The experiment in a line: IL-1β secretion assay (NLRP3 IC50) in LPS-primed, nigericin-activated THP-1 cells, HTRF. It counts as cell-based. Conditions: monocytic THP-1 cells; LPS 10 ng/mL 3 h priming, then compound + nigericin 10 μM 2 h; relative IC50, 10 concentrations, geometric mean. In a few lines: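 IL-1β in supernatant read by HTRF after 2 h co-incubation of compound (0.1% DMSO, 10 concentrations, 1:3 series) with nigericin at 10 μM final, following 3 h LPS (10 ng/mL) priming of THP-1 monocytes at 37° C. Inhibition normalised to unactivated and no-compound controls; geometric-mean relative IC50 from 4-parameter logistic model.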
For orientation: In TR-FRET formats the signal depends on donor and acceptor labels being close together.
Regarding `CC(=O)N1CC[C@H]2CCN(c3ccc(-c4c(C)cc(C(F)(F)F)cc4O)nn3)[C@H]2C1` [Example 369, 1-[(3aR,7aR)-1-[6-[2-hydroxy-6-methyl-4-(trifluoromethyl)phenyl]pyridazin-3-yl]-3,3a,4,5,7,7a-hexahydro-2H-pyrrolo[2,3-c]pyridin-6-yl]ethanone], the IC50 was 476 nM.

`CC(=O)N1CC[C@@H]2CCN(c3ccc(-c4c(C)cc(C(F)(F)F)cc4O)nn3)[C@@H]2C1` [Example 370, 1-[(3aS,7aS)-1-[6-[2-hydroxy-6-methyl-4-(trifluoromethyl)phenyl]pyridazin-3-yl]-3,3a,4,5,7,7a-hexahydro-2H-pyrrolo[2,3-c]pyridin-6-yl]ethanone]: the 50% inhibitory concentration (IC50) was determined as 1270 nM.

Turning to `CC(=O)N1CC[C@H]2CCN(c3ccc(-c4c(C)cc(C(F)(F)F)cc4O)nn3)[C@H]2C1` [Example 395, 1-[(3aR,7aR)-1-[6-[2-hydroxy-6-methyl-4-(trifluoromethyl)phenyl]pyridazin-3-yl]-3,3a,4,5,7,7a-hexahydro-2H-pyrrolo[2,3-c]pyridin-6-yl]ethanone], the IC50 came out at 234 nM.

Regarding `O=S1(=O)CCN(c2ccc(-c3c(O)cc(Cl)cc3Cl)nn2)CC1` [Example 399, 3,5-dichloro-2-[6-(1,1-dioxo-1,4-thiazinan-4-yl)pyridazin-3-yl]phenol], the concentration for half-maximal inhibition (IC50) was 564 nM.

As for `CN1CC[C@H]2OCCN(c3ccc(-c4c(O)cccc4C(F)(F)F)nn3)[C@H]2C1` [Example 402, 2-[6-[(4aS,8aR)-6-methyl-3,4a,5,7,8,8a-hexahydro-2H-pyrido[4,3-b][1,4]oxazin-4-yl]pyridazin-3-yl]-3-(trifluoromethyl)phenol], the IC50 worked out at 22 nM.

As for `CCN1CC[C@H]2OCCN(c3ccc(-c4c(C)cc(C)cc4O)nn3)[C@H]2C1` [Example 404, 2-[6-[(4aS,8aR)-6-ethyl-3,4a,5,7,8,8a-hexahydro-2H-pyrido[4,3-b][1,4]oxazin-4-yl]pyridazin-3-yl]-3,5-dimethyl-phenol], the IC50 worked out at 0.75 nM.

Take `CC(=O)N1CC[C@H]2OCCN(c3ccc(-c4c(C)cccc4O)nn3)[C@H]2C1` [Example 409, 1-[(4aS,8aR)-4-[6-(2-hydroxy-6-methyl-phenyl)pyridazin-3-yl]-3,4a,5,7,8,8a-hexahydro-2H-pyrido[4,3-b][1,4]oxazin-6-yl]ethanone]: the IC50 turned out to be 638 nM.

For `Cc1cc(C)c(-c2ccc(N3CC4CCC3CN(C)C4)nn2)c(O)c1` (centres unmarked) [Example 410, 3,5-dimethyl-2-[6-(3-methyl-3,6-diazabicyclo[3.2.2]nonan-6-yl)pyridazin-3-yl]phenol], the IC50 was 2180 nM.

Turning to `Cc1cccc(O)c1-c1ccc(N2CCO[C@@H]3CCNC[C@@H]32)nn1` [Example 411, 2-[6-[(4aS,8aR)-2,3,4a,5,6,7,8,8a-octahydropyrido[4,3-b][1,4]oxazin-4-yl]pyridazin-3-yl]-3-methyl-phenol], the IC50 worked out at 344 nM.

Regarding `Cc1cc(C(F)(F)F)cc(O)c1-c1ccc(N2CC3CCC2CN(C)C3)nn1` (centres unmarked) [Example 417, 3-methyl-2-[6-(3-methyl-3,6-diazabicyclo[3.2.2]nonan-6-yl)pyridazin-3-yl]-5-(trifluoromethyl)phenol], the IC50 worked out at 716 nM.

As to `CCc1cccc(O)c1-c1ccc(N2CCO[C@@H]3CCN(C(C)=O)C[C@@H]32)nn1` [Example 424, 1-[(4aS,8aR)-4-[6-(2-ethyl-6-hydroxy-phenyl)pyridazin-3-yl]-3,4a,5,7,8,8a-hexahydro-2H-pyrido[4,3-b][1,4]oxazin-6-yl]ethanone], the IC50 is 396 nM.

In the case of `Cc1cc(C)c(-c2ccc(N3CCCC34CCCN(C)C4)nn2)c(O)c1` (centres unmarked) [Example 428, 3,5-dimethyl-2-[6-(9-methyl-1,9-diazaspiro[4.5]decan-1-yl)pyridazin-3-yl]phenol], the IC50 amounted to 1020 nM.

As for `CCc1cccc(O)c1-c1cc(C)c(N2CCO[C@@H]3CCN(C)C[C@@H]32)nn1` [Example 439, 2-[6-[(4aS,8aR)-6-methyl-3,4a,5,7,8,8a-hexahydro-2H-pyrido[4,3-b][1,4]oxazin-4-yl]-5-methyl-pyridazin-3-yl]-3-ethyl-phenol], the IC50 came to 569 nM.

On to `Cc1cc(C)c(-c2ccc(N3CCC4(CN(C)CCO4)C3)nn2)c(O)c1` (centres unmarked) [Example 440, 3,5-dimethyl-2-[6-(9-methyl-6-oxa-2,9-diazaspiro[4.5]decan-2-yl)pyridazin-3-yl]phenol], for which the IC50 amounted to 3280 nM.

On to `Cc1cc(C)c(-c2ccc(N3CCCC4(COCCN4C)C3)nn2)c(O)c1` (centres unmarked) [Example 441, 3,5-dimethyl-2-[6-(1-methyl-4-oxa-1,8-diazaspiro[5.5]undecan-8-yl)pyridazin-3-yl]phenol], for which the concentration for half-maximal inhibition (IC50) worked out at 4670 nM.

In the case of `CC(=O)N1CC[C@H]2OCCN(c3cc(C(F)F)c(-c4ccc(Cl)cc4O)nn3)[C@H]2C1` [Example 442, 1-[(4aS,8aR)-4-[6-(4-chloro-2-hydroxy-phenyl)-5-(difluoromethyl)pyridazin-3-yl]-3,4a,5,7,8,8a-hexahydro-2H-pyrido[4,3-b][1,4]oxazin-6-yl]ethanone], the IC50 is 195 nM.

Regarding `Cc1cc(C)c(-c2ccc(N3CCC4(COCCN4C)C3)nn2)c(O)c1` (centres unmarked) [Example 444, 3,5-dimethyl-2-[6-(6-methyl-9-oxa-2,6-diazaspiro[4.5]decan-2-yl)pyridazin-3-yl]phenol], the IC50 came to 4060 nM.

With `Cc1cc(C)c(-c2ccc(N3CC[C@]4(CN(C)CCO4)C3)nn2)c(O)c1` [Example 445, 3,5-dimethyl-2-[6-[(5S)-9-methyl-6-oxa-2,9-diazaspiro[4.5]decan-2-yl]pyridazin-3-yl]phenol], the 50% inhibitory concentration (IC50) is 1900 nM.

Regarding `Cc1cc(C)c(-c2ccc(N3CC[C@@]4(CN(C)CCO4)C3)nn2)c(O)c1` [Example 446, 3,5-dimethyl-2-[6-[(5R)-9-methyl-6-oxa-2,9-diazaspiro[4.5]decan-2-yl]pyridazin-3-yl]phenol], the IC50 worked out at 815 nM.

Regarding `Cc1cc(C)c(-c2ccc(N3CCOCC34CCCN(C)C4)nn2)c(O)c1` (centres unmarked) [Example 449, 3,5-dimethyl-2-[6-(8-methyl-4-oxa-1,8-diazaspiro[5.5]undecan-1-yl)pyridazin-3-yl]phenol], the IC50 was determined as 4190 nM.

In the case of `Cc1cc(C)c(-c2ccc(N3CC[C@]4(COCCN4C)C3)nn2)c(O)c1` [Example 450, 3,5-dimethyl-2-[6-[(5R)-6-methyl-9-oxa-2,6-diazaspiro[4.5]decan-2-yl]pyridazin-3-yl]phenol], the IC50 worked out at 2040 nM.

Regarding `Cc1cc(C)c(-c2ccc(N3CC[C@@]4(COCCN4C)C3)nn2)c(O)c1` [Example 451, 3,5-dimethyl-2-[6-[(5S)-6-methyl-9-oxa-2,6-diazaspiro[4.5]decan-2-yl]pyridazin-3-yl]phenol], the IC50 stood at 1650 nM.

With `Cc1cc(C)c(-c2ccc(N3CCOCC34CN(C)C4)nn2)c(O)c1` [Example 455, 3,5-dimethyl-2-[6-(2-methyl-8-oxa-2,5-diazaspiro[3.5]nonan-5-yl)pyridazin-3-yl]phenol], the IC50 was 7150 nM.

As to `CCN1CC[C@H]2OCCN(c3cc(C(F)F)c(-c4ccc(Cl)cc4O)nn3)[C@H]2C1` [Example 456, 2-[6-[(4aS,8aR)-6-ethyl-3,4a,5,7,8,8a-hexahydro-2H-pyrido[4,3-b][1,4]oxazin-4-yl]-4-(difluoromethyl)pyridazin-3-yl]-5-chloro-phenol], the IC50 came out at 2 nM.

For the molecule `CC(=O)N1CC[C@H]2CCN(c3cc(C)c(-c4ccc(C)cc4O)nn3)[C@H]2C1` [Example 457, 1-[(3aR,7aR)-1-[6-(2-hydroxy-4-methyl-phenyl)-5-methyl-pyridazin-3-yl]-3,3a,4,5,7,7a-hexahydro-2H-pyrrolo[2,3-c]pyridin-6-yl]ethenone], the IC50 came out at 432 nM.

Consider `CCc1cc(Cl)cc(O)c1-c1ccc(N2CCO[C@@H]3CCN(C)C[C@@H]32)nn1` [Example 461, 2-[6-[(4aS,8aR)-6-methyl-3,4a,5,7,8,8a-hexahydro-2H-pyrido[4,3-b][1,4]oxazin-4-yl]pyridazin-3-yl]-5-chloro-3-ethyl-phenol], for which the IC50 was determined as 1 nM.

Turning to `CC(=O)N1CCC[C@@H]2[C@H]1CCCN2c1ccc(-c2c(C)cc(C(F)(F)F)cc2O)nn1` [Example 462, 1-[(4aR,8aR)-5-[6-[2-hydroxy-6-methyl-4-(trifluoromethyl)phenyl]pyridazin-3-yl]-2,3,4,4a,6,7,8,8a-octahydro-1,5-naphthyridin-1-yl]ethanone], the IC50 was 251 nM.

As to `CC(=O)N1CCC[C@H]2[C@@H]1CCCN2c1ccc(-c2c(C)cc(C(F)(F)F)cc2O)nn1` [Example 463, 1-[(4aS,8aS)-5-[6-[2-hydroxy-6-methyl-4-(trifluoromethyl)phenyl]pyridazin-3-yl]-2,3,4,4a,6,7,8,8a-octahydro-1,5-naphthyridin-1-yl]ethanone], the concentration for half-maximal inhibition (IC50) was found to be 3780 nM.

In the case of `CCc1cc(N2CCO[C@@H]3CCN(C)C[C@@H]32)nnc1-c1ccc(C)cc1O` [Example 470, 2-[6-[(4aS,8aR)-6-methyl-3,4a,5,7,8,8a-hexahydro-2H-pyrido[4,3-b][1,4]oxazin-4-yl]-4-ethyl-pyridazin-3-yl]-5-methyl-phenol], the IC50 was 0.38 nM.

In the case of `Cc1cc(N2CCO[C@@H]3CCN(C)C[C@@H]32)nnc1-c1ccc2c(c1O)CCC2` [Example 471, 5-[6-[(4aS,8aR)-6-methyl-3,4a,5,7,8,8a-hexahydro-2H-pyrido[4,3-b][1,4]oxazin-4-yl]-4-methyl-pyridazin-3-yl]indan-4-ol], the IC50 was found to be 1 nM.

As to `Cc1ccc(-c2nnc(N3CCO[C@@H]4CCN(C(C)C)C[C@@H]43)cc2C)c(O)c1` [Example 472, 2-[6-[(4aS,8aR)-6-isopropyl-3,4a,5,7,8,8a-hexahydro-2H-pyrido[4,3-b][1,4]oxazin-4-yl]-4-methyl-pyridazin-3-yl]-5-methyl-phenol], the half-maximal inhibitory concentration (IC50) turned out to be 1 nM.

`CCN1CC[C@H]2OCCN(c3cc(C)c(-c4ccc(F)cc4O)nn3)[C@H]2C1` [Example 479, 2-[6-[(4aS,8aR)-6-ethyl-3,4a,5,7,8,8a-hexahydro-2H-pyrido[4,3-b][1,4]oxazin-4-yl]-4-methyl-pyridazin-3-yl]-5-fluoro-phenol]: the 50% inhibitory concentration (IC50) was 5 nM.
